Measurements as given in patent US10385050B2, “Indolin-2-one and 1,3-dihydro-pyrrolo[3,2-c]pyridin-2-one derivatives” (Hoffmann-La Roche Inc., priority 2014, dated 2019).

How the values were obtained:
[1] = test system: behaviors of compound-treated mice; assay: SmartCube behavioral signature and similarity analysis to atypical antipsychotics; format: in vivo, mouse; settings: 25 mg/kg i.p.; for SmartCube signature (class similarity): FIG. 1; for Similarity analysis: discrimination rate vs Clozapine / Similarity analysis: discrimination rate vs Olanzapine / Similarity analysis: discrimination rate vs Risperidone: rate of 0.70 or lower = similar, 0.5 = zero distinguishability
Source text: In addition to the reversal of L-687,414 induced hyperlocomotion experiment as described above, some compounds of the present invention have been tested in SmartCube®, an automated system in which the behaviors of compound-treated mice in response to multiple challenges are captured by digital video and analyzed with computer algorithms (Roberds et al., Frontiers in Neuroscience, 2011, Vol. 5, Art. 103, 1-4). In this way, the neuro-pharmacological effects of a test compound can be predicted by similarity to major classes of compounds, such as antipsychotics, anxiolytics and antidepressants.
As mentioned above, some compounds have been tested in SmartCube®, an analytical system developed by PsychoGenics Inc.
SmartCube® was used to compare the behavioral signature of a test compound to a database of behavioral signatures obtained from a large set of clinically approved reference drugs, grouped per indications. In this way, the neuro-pharmacological effects of a test compound can be predicted by similarity to major classes of compounds, such as antipsychotics, anxiolytics and antidepressants. This approach is ideally suited to screen collections of existing drugs or drug candidates with previously unknown neuropharmacology, which could expedite the development of new and unexpected treatments for psychiatric disorders.
Some compounds of the present invention were injected i.p. at different doses 15 minutes before the test. At least 8 mice were used in each treatment group. Digital videos of the subjects were processed with computer vision algorithms to extract over 2000 dependent measures including frequency and duration of many different behavioral states. The results of the classifications are presented as bar charts for each compound and dose (mg/kg), the Y-axis indicates the relative probability that the test compound will show efficacy in the specific CNS indication.
Compounds of the present invention show similar signatures to those of atypical antipsychotics. An independent analysis was performed on the unclassified data to determine the similarity of the example compounds to active doses of known atypical antipsychotics. For this analysis, we use discrimination rate as the measure of separability between the two drugs, i.e. one drug's “distinguishability” from another. A rate equal to 50% (or 0.5) corresponds to zero distinguishability. […] In most cases, the example compounds show a similarity to risperidone, clozapine and olanzapine with a discrimination rate of ≤0.70.

[2] = test system: L-687,414-induced hyperlocomotion; assay: Reversal of L-687,414-induced hyperlocomotion (Digiscan locomotor activity); format: in vivo, mouse; settings: for inhibition in vivo at 30 mg/kg: Mus musculus, 0.5 h; for ID50 po: dose producing 50% inhibition of L-687,414-induced hyperlocomotion, p.o. 15 min before s.c. 50 mg/kg L-687,414, doses 1-3-10 (Expl. 2: 3-10-30) mg/kg
Source text: The authors described that hyperlocomotion induced by L-687,414 was inhibited by a series of known antipsychotic drugs. […] These findings predict antipsychotic activity for the present compounds, making them useful for the treatment of positive (psychosis) and negative symptoms of schizophrenia, substance abuse, alcohol and drug addiction, obsessive-compulsive disorders, cognitive impairment, bipolar disorders, mood disorders, major depression, resistant depression, anxiety disorders, Alzheimer's disease, autism, Parkinson's disease, chronic pain, borderline personality disorder, sleep disturbances, chronic fatigue syndrome, stiffness, antiinflammatory effects in arthritis and balance problems.
The described compounds of formula I reduce L-687,414-induced hyperlocomotion. This was assessed by using a computerized Digiscan 16 Animal Activity Monitoring System (Omnitech Electronics, Columbus, Ohio) to quantify locomotor activity. Animals were kept under a 12 h light/dark cycle and experiments were performed during the light period. Each activity monitoring chamber consisted of a Plexiglas box (41×41×28 cm; W×L×H) with sawdust bedding on the floor surrounded by invisible horizontal and vertical infrared sensor beams. The test boxes were divided by a Plexiglas cross providing each mouse with 20×20 cm of moving space. Cages were connected to a Digiscan Analyzer linked to a computer that constantly collected the beam status information. Records of photocell beam interruptions for individual animals were taken every 5 min over the duration of the experimental session and the sum of the first 6 periods was used as the final parameter. Compounds were administered either p.o. 15 min before a s.c. injection of 50 mg/kg of L-687,414, or i.p. at the same time as a s.c. injection of 50 mg/kg of L-687,414. Mice were then transferred from their home cage to the recording chambers for a 15-min habituation phase allowing free exploration of the new environment. Horizontal activity was then recorded for a 30-min time period. The % inhibition of L-687,414-induced hyperlocomotion was calculated according to the equation: ((Veh+L-687,414 horizontal activity−drug+L-687,414 horizontal activity)/Veh+L−687,414 horizontal activity)×100
ID50 values, defined as doses of each compound producing 50% inhibition of L-687,414-induced hyperlocomotion, were calculated by linear regression analysis of a dose-response data using an Excel-based computer-fitting program.
As data was not presupposed to be normally distributed, groups treated with test compounds were statistically compared with the control (vehicle-treated) group using one-tailed Mann Whitney U tests. In statistics, the Mann-Whitney U test (also called the Mann-Whitney-Wilcoxon (MWW) or Wilcoxon rank-sum test) is a non-parametric statistical hypothesis test for assessing whether one of two samples of independent observations tends to have larger values than the other. It is one of the most well-known non-parametric significance tests. […] P values given in table 1 are one-tailed since only decreases in locomotion were expected and tested for (Mann, H. B., Whitney, D. R. (1947), “On a Test of Whether one of Two Random Variables is Stochastically Larger than the Other”, Annals of Mathematical Statistics, 18 (1), 50-60).

[3] = dose ip 30 mg/kg at the same time as s.c. 50 mg/kg L-687,414, horizontal activity over 30 min

For `CC1(C)C(=O)Nc2cc(-n3cnc(-c4ccncc4)c3)ccc21` [Example 47, 3,3-Dimethyl-6-(4-(pyridin-4-yl)-1H-imidazol-1-yl)indolin-2-one], the “SmartCube signature (class similarity)” value [1] was “similarity to atypical antipsychotics”, the “Similarity analysis: discrimination rate vs Clozapine” value (“Similarity analysis … vs Clozapine” for short) [1] was 0.70 and the “Similarity analysis: discrimination rate vs Olanzapine” value (“Similarity analysis … vs Olanzapine” for short) [1] was 0.68. For the same compound, the “Similarity analysis: discrimination rate vs Risperidone” value (from here on “Similarity analysis … vs Risperidone”) [1] was 0.64.
In the case of `CC1(C)C(=O)Nc2cc(-c3cn(-c4cccnc4)cn3)ccc21` [Example 93, 3,3-Dimethyl-6-(1-(pyridin-3-yl)-1H-imidazol-4-yl)indolin-2-one], the “SmartCube signature (class similarity)” value [1] was “similarity to atypical antipsychotics”, the “Similarity analysis … vs Clozapine” value [1] was 0.63 and the “Similarity analysis … vs Olanzapine” value [1] was 0.68. The “Similarity analysis … vs Risperidone” value [1] was 0.60.
Compound `Cc1ccc(-c2cnn(-c3ccc4c(c3)N(C3CC3)C(=O)C4(C)C)c2)cn1` [Example 69, 1-Cyclopropyl-3,3-dimethyl-6-(4-(6-methylpyridin-3-yl)-1H-pyrazol-1-yl)indolin-2-one] has an inhibition in vivo at 30 mg/kg [2, 3] of 53.3%.
With `CC1(C)C(=O)N(CCO)c2cc(-c3cn(-c4ccncc4F)cn3)ccc21` [Example 130, 6-[1-(3-Fluoro-4-pyridyl)imidazol-4-yl]-1-(2-hydroxyethyl)-3,3-dimethyl-indolin-2-one] the inhibition in vivo at 30 mg/kg [2, 3] was 74.5%.
With `CN1C(=O)C(C)(C)c2ccc(-n3cc(-c4ccncc4)nn3)cc21` [Example 57, 1,3,3-Trimethyl-6-(4-(pyridin-4-yl)-1H-1,2,3-triazol-1-yl)indolin-2-one] the inhibition in vivo at 30 mg/kg [2, 3] was 89.2%.
`Cc1ccc(-c2ncc(-c3ccc4c(c3)N(C)C(=O)C4(C)C)cn2)cn1` [Example 101, 1,3,3-Trimethyl-6-(2-(6-methylpyridin-3-yl)pyrimidin-5-yl)indolin-2-one] showed an inhibition in vivo at 30 mg/kg [2, 3] of 78.4%.
`CC1(C)C(=O)N(C2CC2)c2cc(-c3cn(-c4ccncc4F)cn3)ccc21` [Example 76, 1-Cyclopropyl-6-(1-(3-fluoropyridin-4-yl)-1H-imidazol-4-yl)-3,3-dimethylindolin-2-one] was tested, and the ID50 po [2] was <1 mg/kg.
In the case of `Cc1cc(-c2cnc(-c3ccc4c(c3)N(C3CC3)C(=O)C4(C)C)o2)ccn1` [Example 19, 1-Cyclopropyl-3,3-dimethyl-6-(5-(2-methylpyridin-4-yl)oxazol-2-yl)indolin-2-one], the inhibition in vivo at 30 mg/kg [2, 3] was 55.9%.
`Cc1ccc(N2C(=O)C(C)(C)c3ccc(-c4cn(-c5ccnc(C)c5)cn4)cc32)cn1` [Example 104, 3,3-Dimethyl-1-(6-methyl-3-pyridyl)-6-[1-(2-methyl-4-pyridyl)imidazol-4-yl]indolin-2-one] gave an inhibition in vivo at 30 mg/kg [2, 3] of 64.8%.
For `Cc1ccc(-c2ncc(-c3ccc4c(c3)N(C3CC3)C(=O)C4(C)C)o2)cn1` [Example 33, 1-Cyclopropyl-3,3-dimethyl-6-(2-(6-methylpyridin-3-yl)oxazol-5-yl)indolin-2-one], the ID50 po [2] was 3.36 mg/kg.
With `Cc1cc(-c2cnn(-c3ccc4c(c3)N(C3CC3)C(=O)C4(C)C)c2)ccn1` [Example 55, 1-Cyclopropyl-3,3-dimethyl-6-(4-(2-methylpyridin-4-yl)-1H-pyrazol-1-yl)indolin-2-one] the inhibition in vivo at 30 mg/kg [2, 3] was 42.7%.
Compound `Cc1cc(-c2ncc(-c3ccc4c(c3)N(C)C(=O)C4(C)C)o2)ccn1` [Example 22, 1,3,3-Trimethyl-6-(2-(2-methylpyridin-4-yl)oxazol-5-yl)indolin-2-one] has an inhibition in vivo at 30 mg/kg [2, 3] of 55.9%.
`CC1(C)C(=O)N(C2CC2)c2cc(-n3cc(-c4cccnc4)cn3)ccc21` [Example 52, 1-Cyclopropyl-3,3-dimethyl-6-(4-(pyridin-3-yl)-1H-pyrazol-1-yl)indolin-2-one] gave an inhibition in vivo at 30 mg/kg [2, 3] of 82.1%.
For `CN1C(=O)C(C)(C)c2ccc(-c3cnn(-c4cccnc4)c3)cc21` [Example 50, 1,3,3-Trimethyl-6-(1-(pyridin-3-yl)-1H-pyrazol-4-yl)indolin-2-one], the inhibition in vivo at 30 mg/kg [2, 3] was 44%.
With “1,3,3-Trimethyl-6-(3-pyridin-4-yl-isoxazol-5-yl)-1,3-dihydro-indol-2-one [Example 42]” the “Inhibition, ip” value [2, 3] was 58.4%.
With `Cc1cc(-n2cnc(-c3ccc4c(c3)N(C)C(=O)C4(C)C)c2)ccn1` [Example 62, 1,3,3-Trimethyl-6-(1-(2-methylpyridin-4-yl)-1H-imidazol-4-yl)indolin-2-one] the “SmartCube signature (class similarity)” value [1] was “similarity to atypical antipsychotics”, the “Similarity analysis … vs Clozapine” value [1] was 0.59 and the “Similarity analysis … vs Olanzapine” value [1] was 0.62. For the same compound, the “Similarity analysis … vs Risperidone” value [1] was 0.58 and the ID50 po [2] was 8.8 mg/kg.
`CC1(C)C(=O)N(C2CC2)c2cc(-c3cnc(-c4ccncc4)o3)ccc21` [Example 10, 1-Cyclopropyl-3,3-dimethyl-6-(2-(pyridin-4-yl)oxazol-5-yl)indolin-2-one] gave an inhibition in vivo at 30 mg/kg [2, 3] of 78.8%.
`Cc1cnccc1-n1cnc(-c2ccc3c(c2)N(C2CC2)C(=O)C3(C)C)c1` [Example 89, 1-Cyclopropyl-3,3-dimethyl-6-(1-(3-methylpyridin-4-yl)-1H-imidazol-4-yl)indolin-2-one] was tested, and the inhibition in vivo at 30 mg/kg [2, 3] was 58.5%.
`Cc1ccc(N2C(=O)C(C)(C)c3ccc(-c4cn(-c5ccncc5F)cn4)cc32)cn1` [Example 102, 6-[1-(3-Fluoro-4-pyridyl)imidazol-4-yl]-3,3-dimethyl-1-(6-methyl-3-pyridyl)indolin-2-one] was tested, and the inhibition in vivo at 30 mg/kg [2, 3] was 65.6%.
In the case of `Cc1cc(-c2ncc(-c3ccc4c(c3)NC(=O)C4(C)C)o2)ccn1` [Example 35, 3,3-Dimethyl-6-(2-(2-methylpyridin-4-yl)oxazol-5-yl)indolin-2-one], the “SmartCube signature (class similarity)” value [1] was “similarity to atypical antipsychotics”, the “Similarity analysis … vs Clozapine” value [1] was 0.69 and the “Similarity analysis … vs Olanzapine” value [1] was 0.75. The “Similarity analysis … vs Risperidone” value [1] was 0.60 and the ID50 po [2] was 5.82 mg/kg.
Work on `Cc1cc(N2C(=O)C(C)(C)c3ccc(-c4cn(-c5ccncc5C)cn4)cc32)ccn1` [Example 106, 3,3-Dimethyl-1-(2-methyl-4-pyridyl)-6-[1-(3-methyl-4-pyridyl)imidazol-4-yl]indolin-2-one] yielded an inhibition in vivo at 30 mg/kg [2, 3] of 68.4%.
`Cc1ncc(N2C(=O)C(C)(C)c3ccc(-c4cn(-c5ccncc5C)cn4)cc32)cn1` [Example 116, 3,3-Dimethyl-6-[1-(3-methyl-4-pyridyl)imidazol-4-yl]-1-(2-methylpyrimidin-5-yl)indolin-2-one] gave an inhibition in vivo at 30 mg/kg [2, 3] of 74.3%.
